The experiment addresses recombinant human HPK1 (Homo sapiens (Human), UniProt Q92918). Put plainly: HPK1 kinase assay (ADP-Glo). Particulars: 25 μM ATP, MBP substrate. It counts as biochemical. Summed up: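 Activity was read as ADP formed, detected by ADP-Glo luminescence after the reaction of 5 ng recombinant human HPK1 with MBP and ATP (stocks 0.5 μg/μl and 25 μM) for 40 min at 30 °C. Buffer was Tris pH 7.5 with MgCl2, BSA and DTT, with compound in 0.5% DMSO. IC50 came from inhibition curves.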

SMILES strings stand for the structures. Some results are limits rather than exact numbers.

recombinant human HPK1, sequence (Q92918 whole entry): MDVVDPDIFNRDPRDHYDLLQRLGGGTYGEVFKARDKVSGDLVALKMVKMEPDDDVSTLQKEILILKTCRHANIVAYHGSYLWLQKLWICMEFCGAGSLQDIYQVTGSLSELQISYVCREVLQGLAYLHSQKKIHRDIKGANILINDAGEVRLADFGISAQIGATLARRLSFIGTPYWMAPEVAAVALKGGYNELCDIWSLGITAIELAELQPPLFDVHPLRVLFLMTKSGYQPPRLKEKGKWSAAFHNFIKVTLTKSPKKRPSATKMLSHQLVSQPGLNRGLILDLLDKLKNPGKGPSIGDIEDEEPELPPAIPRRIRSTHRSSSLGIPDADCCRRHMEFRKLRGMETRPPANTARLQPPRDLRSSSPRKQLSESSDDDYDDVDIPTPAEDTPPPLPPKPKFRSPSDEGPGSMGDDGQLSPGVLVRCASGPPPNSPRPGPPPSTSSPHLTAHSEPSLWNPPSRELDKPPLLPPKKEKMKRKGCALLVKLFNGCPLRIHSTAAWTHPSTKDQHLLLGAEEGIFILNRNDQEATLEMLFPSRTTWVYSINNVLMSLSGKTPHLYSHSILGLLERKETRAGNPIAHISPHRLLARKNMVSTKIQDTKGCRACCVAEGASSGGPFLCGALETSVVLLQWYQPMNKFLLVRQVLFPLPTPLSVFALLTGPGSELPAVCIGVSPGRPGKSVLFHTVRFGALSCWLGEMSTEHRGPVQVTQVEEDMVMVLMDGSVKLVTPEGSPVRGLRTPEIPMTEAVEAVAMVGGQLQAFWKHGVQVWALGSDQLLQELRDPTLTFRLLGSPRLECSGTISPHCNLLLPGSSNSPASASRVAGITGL

Consider `CN(c1ccncn1)c1c(F)c(Cl)c(-c2ccc3nc(NC(=O)[C@@H]4C[C@@H]4F)cn3c2)c2cn[nH]c12` [Example 348, (1S,2S)-N-(6-(5-chloro-6-fluoro-7-(methyl(pyrimidin-4-yl)amino)-1H-indazol-4-yl)imidazo[1,2-a]pyridin-2-yl)-2-fluorocyclopropane-1-carboxamide], for which the IC50 was below 100 nM.
Take `CN(Cc1cccnc1)c1c(F)c(Cl)c(-c2ccc3nc(NC(=O)[C@@H]4C[C@@H]4F)cn3c2)c2cn[nH]c12` [Example 349, (1S,2S)-N-(6-(5-chloro-6-fluoro-7-(methyl(pyridin-3-ylmethyl)amino)-1H-indazol-4-yl)imidazo[1,2-a]pyridin-2-yl)-2-fluorocyclopropane-1-carboxamide]: the IC50 is below 100 nM.
On to `Cn1nnnc1-c1c(F)c(Cl)c(-c2ccc3nc(NC(=O)[C@@H]4C[C@@H]4F)cn3c2)c2cn[nH]c12` [Example 350, (1S,2S)-N-(6-(5-chloro-6-fluoro-7-(1-methyl-1H-tetrazol-5-yl)-1H-indazol-4-yl)imidazo[1,2-a]pyridin-2-yl)-2-fluorocyclopropane-1-carboxamide], for which the IC50 is below 100 nM.
As for `N#Cc1c(F)c(Cl)c(-c2ccc3nc(NC(=O)[C@@H]4C[C@@H]4F)cn3c2)c2cn[nH]c12` [Example 351, (1S,2S)-N-(6-(5-chloro-7-cyano-6-fluoro-1H-indazol-4-yl)imidazo[1,2-a]pyridin-2-yl)-2-fluorocyclopropane-1-carboxamide], the figure is below 100 nM; as for `CN(C)c1ccc(-c2ccc3nc(NC(=O)[C@@H]4C[C@@H]4F)cn3c2)c2cn[nH]c12` [Example 352, (1S,2S)-N-(6-(7-(dimethylamino)-1H-indazol-4-yl)imidazo[1,2-a]pyridin-2-yl)-2-fluorocyclopropane-1-carboxamide], 101 to 500 nM; as for `CN(Cc1ccncc1)c1c(F)c(Cl)c(-c2ccc3nc(NC(=O)[C@@H]4C[C@@H]4F)cn3c2)c2cn[nH]c12` [Example 353, (1S,2S)-N-(6-(5-chloro-6-fluoro-7-(methyl(pyridin-4-ylmethyl)amino)-1H-indazol-4-yl)imidazo[1,2-a]pyridin-2-yl)-2-fluorocyclopropane-1-carboxamide], below 100 nM.
As for `CN(C)C(=O)c1c(F)cc(-c2ccc3nc(NC(=O)[C@@H]4C[C@@H]4F)cn3c2)c2cn[nH]c12` [Example 354, 6-fluoro-4-(2-((1S,2S)-2-fluorocyclopropane-1-carboxamido)imidazo[1,2-a]pyridin-6-yl)-N,N-dimethyl-1H-indazole-7-carboxamide], the figure is above 1000 nM; as for `CN(C)C(=O)c1c(F)cc2[nH]ncc2c1-c1ccc2nc(NC(=O)[C@@H]3C[C@@H]3F)cn2c1` [Example 355, 6-fluoro-4-(2-((1S,2S)-2-fluorocyclopropane-1-carboxamido)imidazo[1,2-a]pyridin-6-yl)-N,N-dimethyl-1H-indazole-5-carboxamide], above 1000 nM; as for `CCOc1c(F)c(F)c2[nH]ncc2c1-c1ccc2nc(NC(=O)[C@@H]3C[C@@H]3F)cn2c1` [Example 357, (1S,2S)-N-(6-(5-ethoxy-6,7-difluoro-1H-indazol-4-yl)imidazo[1,2-a]pyridin-2-yl)-2-fluorocyclopropane-1-carboxamide], below 100 nM.
As for `CN1CCN(c2c(F)c(Cl)c(-c3ccc4nc(NC(=O)[C@@H]5C[C@@H]5F)cn4c3)c3cn[nH]c23)C1=O` [Example 358, (1S,2S)-N-(6-(5-chloro-6-fluoro-7-(3-methyl-2-oxoimidazolidin-1-yl)-1H-indazol-4-yl)imidazo[1,2-a]pyridin-2-yl)-2-fluorocyclopropane-1-carboxamide], the figure is below 100 nM.
With `CC(C)N(C)c1c(F)c(Cl)c(-c2ccc3nc(NC(=O)[C@@H]4C[C@@H]4F)cn3c2)c2cn[nH]c12` [Example 360, (1S,2S)-N-(6-(5-chloro-6-fluoro-7-(isopropyl(methyl)amino)-1H-indazol-4-yl)imidazo[1,2-a]pyridin-2-yl)-2-fluorocyclopropane-1-carboxamide], the IC50 is below 100 nM.
As for `O=C(Nc1cn2cc(-c3c(Cl)c(F)c(CF)c4[nH]ncc34)ccc2n1)[C@@H]1C[C@@H]1F` [Example 363, (1S,2S)-N-(6-(5-chloro-6-fluoro-7-(fluoromethyl)-1H-indazol-4-yl)imidazo[1,2-a]pyridin-2-yl)-2-fluorocyclopropane-1-carboxamide], the figure is below 100 nM.
In the case of `Cc1noc(-c2c(F)c(Cl)c(-c3ccc4nc(NC(=O)[C@@H]5C[C@@H]5F)cn4c3)c3cn[nH]c23)n1` [Example 364, (1S,2S)-N-(6-(5-chloro-6-fluoro-7-(3-methyl-1,2,4-oxadiazol-5-yl)-1H-indazol-4-yl)imidazo[1,2-a]pyridin-2-yl)-2-fluorocyclopropane-1-carboxamide], the IC50 is below 100 nM.
Turning to `O=C(Nc1cn2cc(-c3c(Cl)c(F)c(-n4cccc4)c4[nH]ncc34)ccc2n1)[C@@H]1C[C@@H]1F` [Example 365, (1S,2S)-N-(6-(5-chloro-6-fluoro-7-(1H-pyrrol-1-yl)-1H-indazol-4-yl)imidazo[1,2-a]pyridin-2-yl)-2-fluorocyclopropane-1-carboxamide], the half-maximal inhibitory concentration (IC50) is below 100 nM.
For the compound `N#CCNc1c(F)c(Cl)c(-c2ccc3nc(NC(=O)[C@@H]4C[C@@H]4F)cn3c2)c2cn[nH]c12` [Example 366, (1S,2S)-N-(6-(5-chloro-7-((cyanomethyl)amino)-6-fluoro-1H-indazol-4-yl)imidazo[1,2-a]pyridin-2-yl)-2-fluorocyclopropane-1-carboxamide], the IC50 is below 100 nM.
For `O=C(Nc1cn2cc(-c3c(Cl)c(F)c(NC4CC4)c4[nH]ncc34)ccc2n1)[C@@H]1C[C@@H]1F` [Example 367, (1S,2S)-N-(6-(5-chloro-7-(cyclopropylamino)-6-fluoro-1H-indazol-4-yl)imidazo[1,2-a]pyridin-2-yl)-2-fluorocyclopropane-1-carboxamide], the IC50 is below 100 nM.
Under `O=C(Nc1cn2cc(-c3c(Cl)c(F)c(N(C(=O)C(F)(F)F)C4CC4)c4[nH]ncc34)ccc2n1)[C@@H]1C[C@@H]1F` [Example 368, (1S,2S)-N-(6-(5-chloro-7-(N-cyclopropyl-2,2,2-trifluoroacetamido)-6-fluoro-1H-indazol-4-yl)imidazo[1,2-a]pyridin-2-yl)-2-fluorocyclopropane-1-carboxamide] stands below 100 nM; under `O=C(CCO)Nc1c(F)c(Cl)c(-c2ccc3nc(NC(=O)[C@@H]4C[C@@H]4F)cn3c2)c2cn[nH]c12` [Example 369, (1S,2S)-N-(6-(5-chloro-6-fluoro-7-(3-hydroxypropanamido)-1H-indazol-4-yl)imidazo[1,2-a]pyridin-2-yl)-2-fluorocyclopropane-1-carboxamide], below 100 nM; under `CCC(C)Nc1c(F)c(Cl)c(-c2ccc3nc(NC(=O)[C@@H]4C[C@@H]4F)cn3c2)c2cn[nH]c12` (stereo partly drawn) [Example 370, (1S,2S)-N-(6-(7-(sec-butylamino)-5-chloro-6-fluoro-1H-indazol-4-yl)imidazo[1,2-a]pyridin-2-yl)-2-fluorocyclopropane-1-carboxamide], below 100 nM.
As for `CC(C#N)Nc1c(F)c(Cl)c(-c2ccc3nc(NC(=O)[C@@H]4C[C@@H]4F)cn3c2)c2cn[nH]c12` (stereo partly drawn) [Example 371, (1S,2S)-N-(6-(5-chloro-7-((1-cyanoethyl)amino)-6-fluoro-1H-indazol-4-yl)imidazo[1,2-a]pyridin-2-yl)-2-fluorocyclopropane-1-carboxamide], the figure is below 100 nM; as for `O=C(Nc1cn2cc(-c3c(Cl)c(F)c(Cn4ncnn4)c4[nH]ncc34)ccc2n1)[C@@H]1C[C@@H]1F` [Example 379, (1S,2S)-N-(6-(7-((2H-tetrazol-2-yl)methyl)-5-chloro-6-fluoro-1H-indazol-4-yl)imidazo[1,2-a]pyridin-2-yl)-2-fluorocyclopropane-1-carboxamide], below 100 nM.
As for `O=C(Nc1cn2cc(-c3c(Cl)c(F)c(CN4CCC4)c4[nH]ncc34)ccc2n1)[C@@H]1C[C@@H]1F` [Example 380, (1S,2S)-N-(6-(7-(azetidin-1-ylmethyl)-5-chloro-6-fluoro-1H-indazol-4-yl)imidazo[1,2-a]pyridin-2-yl)-2-fluorocyclopropane-1-carboxamide], the figure is below 100 nM; as for `O=C(Nc1cn2cc(-c3c(Cl)c(F)c(CN4CCCCC4)c4[nH]ncc34)ccc2n1)[C@@H]1C[C@@H]1F` [Example 382, (1S,2S)-N-(6-(5-chloro-6-fluoro-7-(piperidin-1-ylmethyl)-1H-indazol-4-yl)imidazo[1,2-a]pyridin-2-yl)-2-fluorocyclopropane-1-carboxamide], 101 to 500 nM.
As to `O=C(Nc1cn2cc(-c3c(Cl)c(F)c(Cn4nccn4)c4[nH]ncc34)ccc2n1)[C@@H]1C[C@@H]1F` [Example 383, (1S,2S)-N-(6-(7-((2H-1,2,3-triazol-2-yl)methyl)-5-chloro-6-fluoro-1H-indazol-4-yl)imidazo[1,2-a]pyridin-2-yl)-2-fluorocyclopropane-1-carboxamide], the IC50 is below 100 nM.
Consider `O=C(Nc1cn2cc(-c3c(Cl)c(F)c(Cn4ccnn4)c4[nH]ncc34)ccc2n1)[C@@H]1C[C@@H]1F` [Example 384, (1S,2S)-N-(6-(7-((1H-1,2,3-triazol-1-yl)methyl)-5-chloro-6-fluoro-1H-indazol-4-yl)imidazo[1,2-a]pyridin-2-yl)-2-fluorocyclopropane-1-carboxamide], for which the IC50 was below 100 nM.
As to `O=C(Nc1cn2cc(-c3c(Cl)c(F)c(Cn4cncn4)c4[nH]ncc34)ccc2n1)[C@@H]1C[C@@H]1F` [Example 385, (1S,2S)-N-(6-(7-((1H-1,2,4-triazol-1-yl)methyl)-5-chloro-6-fluoro-1H-indazol-4-yl)imidazo[1,2-a]pyridin-2-yl)-2-fluorocyclopropane-1-carboxamide], the IC50 was below 100 nM.
Under `CN(C)c1c(F)c(Cl)c(-c2ccc3nc(NC(=O)NC4CC4)cn3c2)c2cn[nH]c12` [Example 387, 1-(6-(5-chloro-7-(dimethylamino)-6-fluoro-1H-indazol-4-yl)imidazo[1,2-a]pyridin-2-yl)-3-cyclopropylurea] stands below 100 nM.

For the origin of these results see patent US11649255B2, “Indazoles as hematopoietic progenitor kinase 1 (HPK1) inhibitors and methods using same” (1st Biotherapeutics, Inc., priority 2020, dated 2023).
